Reference: patent US9644194B2, “Cold-adapted protease derived from Pseudoalteromonas arctica PAMC 21717 and uses thereof” (KOREA INSTITUTE OF OCEAN SCIENCE & TECHNOLOGY, priority 2014, dated 2017)

Tests used:
W-Pro21717 [1] = assay: Activity and stability of W-Pro21717 in the presence of metal ions and surfactants; type: biochemical, Pseudoalteromonas arctica PAMC 21717; settings: 1 mM, on ice for 1 hour, FIG. 3; for influence on the activity of W-Pro21717: result in words
Description: In order to analyze the influence of metal ions and detergents, W-[…] was allowed to react with a standard buffer containing 1 mM BaCl2, CuSO4, MgSO4, CaCl2, ZnSO4, FePO4, KCl, NaCl, […], sodium linear alkylbenzene sulfonate (LAS) or SDS on ice for 1 hour. In addition, the compatibility of W-[…] with a commercial detergent (LG Household & Health Care, Korea; containing subtilisin Carlsberg) was analyzed using skim milk at temperatures of 10° C. and 30° C.

W-Pro21717 [2] = assay: Effect of protease inhibitors on W-Pro21717 activity; type: biochemical, Pseudoalteromonas arctica PAMC 21717; settings: result in words
Description: (§1) The reaction solution was centrifuged, and then filtered through a filter having a pore size of 0.45 μm, and the filtrate was mixed and reacted with Folin & Ciocalteu's phenol solution and 500 mM sodium carbonate solution at 37° C. for 30 minutes. Next, the enzymatic activity of the reaction product was measured at 660 nm based on an L-tyrosine standard curve, and an amino acid production of 1 nmole/min/mg at 25° C. was defined as the activity of 1 unit of protease.
The kind of W-Pro21717 was analyzed by reactions with various protease inhibitors.

azocasein [3] = assay: Activity and stability of W-Pro21717 with temperature and pH; type: biochemical
Description: as §1, with “In order to measure the degradation activity of W-Pro21717, the cultured PAMC 21717 cells were centrifuged at 4° C. at 12,000×g for 30 minutes, and the supernatant was mixed with 50 mM sodium phosphate buffer (pH 7.6) containing 0.65% azocasein substrate, and was allowed to at 25° C. for 1 hour, and then additionally allowed to react at 37° C. for 1 hour after adding 110 mM trichloroacetic acid thereto. The” for “The”
A temperature optimal for the activity of W-Pro21717 was analyzed in the temperature range of 0 to 60° C., and the optimum pH was analyzed by 1-hour reactions in 50 mM sodium acetate (pH 2.0-6.0), 50 mM potassium phosphate (pH 7.0-10.0) and 50 mM sodium tetraborate (pH 10.0). As a control, 3 μg of the commercial protease Carlsberg subtilisin was used.

azocasein [4] = assay: Activity and stability of R-Pro21717 with temperature and pH; type: biochemical
Description: In order to determine a temperature optimal for the activity of the protease, R-Pro21717 was allowed to react at varying temperatures of 0˜70° C., and then analyzed. The stability of R-Pro21717 against temperature was analyzed by allowing R-Pro21717 at varying temperatures of 0˜70° C. for 1 hour, and then allowing R-Pro21717 to react a 0.65% azocasein-containing standard buffer at 30° C. for 30 minutes. As a control enzyme, Carlsberg subtilisin was used.
In order to determine a pH optimal for the activity of the protease, R-Pro21717-containing buffers having varying pHs were allowed to react at 30° C., and then analyzed. The stability of R-Pro21717 against pH was analyzed by allowing R-Pro21717-containing buffers having varying pHs to react on ice for 1 hour, and then reacting R-Pro21717 in 0.65% azocasein-containing standard buffer at 30° C. for 30 minutes. Carlsberg subtilisin was used as a control enzyme and analyzed at a reaction temperature of 40° C.

[5] = Substrate specificity of W-Pro21717 with synthetic peptides; type: biochemical; settings: 25° C., 10 minutes, 410 nm
Description: The substrate specificity of W-Pro21717 was analyzed using 5 mM of each of the following 7 different synthetic peptides: N-succinyl-Ala-Ala-Val-p-nitroanilide (AAV), N-succinyl-Ala-Ala-Pro-Leu-p-nitroanilide (AAPL), N-succinyl-Ala-Ala-Ala-p-nitroanilide (AAA), N-succinyl-Gly-Gly-Phe-p-nitroanilide (GGF), N-succinyl-Thr-Leu-Val-p-nitroanilide (TLV), N-succinyl-Ala-Ala-Pro-Phe-p-nitroanilide (AAPF), and N-succinyl-Ala-Ala-Val-Ala-p-nitroanilide (AAVA). W-Pro21717 was allowed to react with a standard buffer containing 0.83 mM substrate at 25° C. for 10 minutes, and then the relative activity thereof was measured at 410 nm.

Molecule: [Ba+2].[Cl-].[Cl-] [Ba^2+, BaCl2]
- influence on the activity of W-Pro21717 (W-Pro21717 [1]): did not influence

Molecule: [Ca+2].[Cl-].[Cl-] [Ca^2+, CaCl2]
- influence on the activity of W-Pro21717 (W-Pro21717 [1]): did not influence

Molecule: O=S(=O)([O-])[O-].[Cu+2] [CuSO4]
- increase of the activity of W-Pro21717 (W-Pro21717 [1]): about 60%

Molecule: O=C(O)CN(CCN(CC(=O)O)CC(=O)O)CC(=O)O [EDTA]
- effect of inhibitor on the activity of W-Pro21717 (W-Pro21717 [2]): slightly inhibited

Molecule: [Fe+2] [Fe^2+, FePO4]
- influence on the activity of W-Pro21717 (W-Pro21717 [1]): did not influence

Molecule: [Cl][Hg][Cl] [HgCl2]
- effect of inhibitor on the activity of W-Pro21717 (W-Pro21717 [2]): inhibited

Molecule: [Cl-].[K+] [K^+, KCl]
- influence on the activity of W-Pro21717 (W-Pro21717 [1]): did not influence

Molecule: O=S(=O)([O-])[O-].[Mg+2] [Mg^2+, MgSO4]
- influence on the activity of W-Pro21717 (W-Pro21717 [1]): did not influence

Molecule: [Cl-].[Na+] [Na^2+, NaCl]
- influence on the activity of W-Pro21717 (W-Pro21717 [1]): did not influence

Molecule: O=S(=O)(F)Cc1ccccc1 [PMSF]
- effect of inhibitor on the activity of W-Pro21717 (W-Pro21717 [2]): inhibited

Molecule: O=S(=O)([O-])[O-].[Zn+2] [Zn^2+, ZnSO4]
- influence on the activity of W-Pro21717 (W-Pro21717 [1]): did not influence

B1: Subtilisin Carlsberg: commercial protease used as control enzyme (protein, UniProt P00780 106-379, looked up)
Subtilisin Carlsberg: AQTVPYGIPLIKADKVQAQGFKGANVKVAVLDTGIQASHPDLNVVGGASFVAGEAYNTDGNGHGTHVAGTVAALDNTTGVLGVAPSVSLYAVKVLNSSGSGSYSGIVSGIEWATTNGMDVINMSLGGASGSTAMKQAVDNAYAKGVVVVAAAGNSGSSGNTNTIGYPAKYDSVIAVGAVDSNSNRASFSSVGAELEVMAPGAGVYSTYPTNTYATLNGTSMASPHVAGAAALILSKHPNLSASQVRNRLSSTATYLGSSFYYGKGLINVEAAAQ
- temperature optimal for the activity (azocasein [3]; tested 0 to 60° C., FIG. 2A): 60 °C
- decrease in activity after a reaction at 40° C. for 1 hour (azocasein [3]; thermal stability, FIG. 2B): 80%
- temperature at which stability / enzymatic activity decreases (azocasein [4]; 1 hour at temperature, then azocasein 30° C. 30 minutes, FIG. 9B): ≥ 50 °C
- pH of highest activity (azocasein [4]; FIG. 9C): same results as those of R-Pro21717
- pH optimal for the stability (azocasein [4]; on ice for 1 hour, FIG. 9D): same results as those of R-Pro21717
- proteolytic activity at low temperature relative to the highest activity (azocasein [4]; printed 'at or'): did not show proteolytic activity
- temperature optimal for the activity (azocasein [4]; tested 0˜70° C., FIG. 9A): 60 °C
- Relative activity (%) ([5]; substrate AAPF): 100%
- Relative activity (%) ([5]; substrate GGF): 0%
